pIC50: −log10 of the molar value.
Assays:
Cathepsin S = Cathepsin S (Homo sapiens, UniProt P25774); assay: Inhibition of cathepsin S assessed as inhibition of fluorogenic substrate cleavage
Cathepsin L2 = target: T1, Cathepsin L2 (Homo sapiens, UniProt O60911); assay: Inhibition of cathepsin L2 assessed as inhibition of fluorogenic substrate cleavage
T1 sequence (O60911 whole entry): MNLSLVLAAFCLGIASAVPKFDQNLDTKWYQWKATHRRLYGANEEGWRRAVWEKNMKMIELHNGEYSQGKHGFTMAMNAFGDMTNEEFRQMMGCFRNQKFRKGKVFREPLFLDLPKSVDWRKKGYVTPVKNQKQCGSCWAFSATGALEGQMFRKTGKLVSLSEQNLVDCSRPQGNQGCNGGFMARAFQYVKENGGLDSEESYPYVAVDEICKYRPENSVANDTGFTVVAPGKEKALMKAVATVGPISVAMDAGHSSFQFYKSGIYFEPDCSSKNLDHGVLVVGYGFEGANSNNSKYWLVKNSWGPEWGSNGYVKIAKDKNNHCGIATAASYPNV

Procathepsin L = Procathepsin L (Homo sapiens, UniProt P07711); assay: Inhibition of cathepsin L assessed as inhibition of fluorogenic substrate cleavage
Cathepsin B = Cathepsin B (Homo sapiens, UniProt P07858); assay: Inhibition of human liver cathepsin B assessed as inhibition of fluorogenic substrate cleavage
Cathepsin K = target: T2, Cathepsin K (Homo sapiens, UniProt P43235); assay: Inhibition of cathepsin K assessed as inhibition of fluorogenic substrate cleavage
T2 sequence (P43235 whole entry): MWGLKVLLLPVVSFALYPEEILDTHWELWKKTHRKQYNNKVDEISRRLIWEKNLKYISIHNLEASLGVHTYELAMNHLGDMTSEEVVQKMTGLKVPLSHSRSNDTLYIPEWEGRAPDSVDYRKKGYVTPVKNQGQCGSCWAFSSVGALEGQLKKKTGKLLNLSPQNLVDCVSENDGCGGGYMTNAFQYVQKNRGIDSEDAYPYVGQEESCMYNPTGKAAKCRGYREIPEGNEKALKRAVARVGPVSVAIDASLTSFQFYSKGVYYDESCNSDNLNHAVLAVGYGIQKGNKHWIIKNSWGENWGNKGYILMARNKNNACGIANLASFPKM

Sequence of Procathepsin L (P07711 whole entry): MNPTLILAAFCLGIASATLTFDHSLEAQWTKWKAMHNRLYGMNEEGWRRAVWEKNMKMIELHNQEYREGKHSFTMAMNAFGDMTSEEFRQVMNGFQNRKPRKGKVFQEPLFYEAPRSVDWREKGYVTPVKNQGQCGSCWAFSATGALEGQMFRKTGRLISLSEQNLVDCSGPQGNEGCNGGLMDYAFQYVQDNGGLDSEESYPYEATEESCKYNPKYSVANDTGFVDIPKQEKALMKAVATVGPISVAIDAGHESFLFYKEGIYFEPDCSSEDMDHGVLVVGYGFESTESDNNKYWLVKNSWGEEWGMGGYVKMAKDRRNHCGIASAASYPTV
Sequence of Cathepsin S (P25774 whole entry): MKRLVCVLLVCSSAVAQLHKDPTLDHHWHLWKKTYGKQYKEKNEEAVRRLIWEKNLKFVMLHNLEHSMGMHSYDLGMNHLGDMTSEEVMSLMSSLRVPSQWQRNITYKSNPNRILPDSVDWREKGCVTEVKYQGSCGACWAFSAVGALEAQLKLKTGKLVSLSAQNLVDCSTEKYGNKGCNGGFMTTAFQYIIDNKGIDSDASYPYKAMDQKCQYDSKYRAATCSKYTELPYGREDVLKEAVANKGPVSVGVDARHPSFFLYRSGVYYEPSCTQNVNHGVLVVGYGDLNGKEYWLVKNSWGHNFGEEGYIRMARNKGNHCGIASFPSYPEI

| SMILES | pIC50 (Cathepsin S) | pIC50 (Cathepsin L2) | pIC50 (Procathepsin L) | pIC50 (Cathepsin B) | pIC50 (Cathepsin K) |
| --- | --- | --- | --- | --- | --- |
| Cn1nc(C(C)(C)C)cc1C(=O)N[C@@H](Cc1cccc(-c2nncs2)c1)C(=O)NCC#N | 7.80 | 8.20 | 8.30 | < 5.00 | 6.90 |
| Cn1nc(C(C)(C)C)cc1C(=O)N[C@@H](Cc1cccc(Cl)c1)C(=O)NCC#N | 6.00 | 6.70 | 7.90 | 5.20 | 5.50 |
| Cc1cccc(C[C@H](NC(=O)c2cc(C(C)(C)C)nn2C)C(=O)NCC#N)c1 | 6.10 | 6.40 |  | 5.40 | 5.60 |
| Cn1nc(C(C)(C)C)cc1C(=O)N[C@@H](Cc1cccc(-c2nnc(CCN)o2)c1)C(=O)NCC#N | 7.20 | 7.00 | 8.90 | 5.20 | 6.80 |
| Cn1nc(C(C)(C)C)cc1C(=O)N[C@@H](Cc1cccc(-c2nnco2)c1)C(=O)NCC#N | 7.20 | 7.70 | 7.80 | < 5.00 | 6.90 |
| COCc1nnc(-c2cccc(C[C@H](NC(=O)c3cc(C(C)(C)C)nn3C)C(=O)NCC#N)c2)o1 | 7.10 | 8.70 | 8.40 | < 5.00 | 6.90 |
| Cn1nc(C(C)(C)C)cc1C(=O)N[C@@H](Cc1cccc(-c2nnc(CN)o2)c1)C(=O)NCC#N | 6.70 | 7.40 | 8.70 | 5.40 | 6.00 |
| Cc1nnc(-c2cccc(C[C@H](NC(=O)c3cc(C(C)(C)C)nn3C)C(=O)NCC#N)c2)s1 | 6.50 | 8.50 | 6.90 | < 5.00 | 5.50 |
| Cc1nnc(-c2cccc(C[C@H](NC(=O)c3cc(C(C)(C)C)nn3C)C(=O)NCC#N)c2)o1 | 7.10 | 8.20 | 8.30 | < 5.00 | 7.20 |
| Cn1cc(-c2cccc(C[C@H](NC(=O)c3cc(C(C)(C)C)nn3C)C(=O)NCC#N)c2)cn1 | 6.50 | 6.80 | 7.80 | < 5.00 | 5.20 |
| Cn1nc(C(C)(C)C)cc1C(=O)N[C@@H](Cc1cccc(-c2nnc(CO)o2)c1)C(=O)NCC#N | 7.20 | 8.10 | 8.20 | < 5.00 | 7.00 |

The remaining lines, values ahead:

| pIC50 (Cathepsin S) | pIC50 (Cathepsin L2) | pIC50 (Procathepsin L) | pIC50 (Cathepsin B) | pIC50 (Cathepsin K) | SMILES |
| --- | --- | --- | --- | --- | --- |
| 6.10 | < 5.00 | < 5.10 | < 5.00 | < 5.00 | N#CCNC(=O)[C@H](Cc1cccc(-c2ccnnc2)c1)NC(=O)c1ccccc1 |
| 6.60 | 5.50 | 5.80 | < 5.00 | < 5.00 | N#CCNC(=O)[C@H](Cc1cccc(-c2ccncc2)c1)NC(=O)c1ccccc1 |
| 8.10 | 7.20 | 5.90 | 5.20 | < 5.20 | N#CCNC(=O)[C@H](Cc1cccc(-c2cccnn2)c1)NC(=O)c1ccccc1 |
| 6.90 | 5.40 | 5.70 | 5.10 | < 5.10 | N#CCNC(=O)[C@H](Cc1cccc(-c2cccnc2)c1)NC(=O)c1ccccc1 |
| 7.70 | 6.80 | 6.30 | < 5.00 | 5.90 | N#CCNC(=O)[C@H](Cc1cccc(-c2nnco2)c1)NC(=O)c1ccccc1 |
| 7.10 | 5.80 | 6.10 | 5.10 | < 5.00 | N#CCNC(=O)[C@H](Cc1cccc(-c2cn[nH]c2)c1)NC(=O)c1ccccc1 |
| 6.90 | 6.10 | 6.60 | 5.30 | 5.50 | N#CCNC(=O)[C@H](Cc1cccc(Cl)c1)NC(=O)c1ccccc1 |
| 6.50 | 5.40 | 5.80 | 5.30 | < 5.00 | N#CCNC(=O)[C@H](Cc1cccc(-c2ccn[nH]2)c1)NC(=O)c1ccccc1 |
| 6.20 | < 5.00 | 5.50 | 5.20 | < 5.00 | N#CCNC(=O)[C@H](Cc1cccc(-c2ccccn2)c1)NC(=O)c1ccccc1 |
| 6.50 | < 5.10 | 5.40 | < 5.00 | < 5.10 | N#CCNC(=O)[C@H](Cc1cccc(-c2cncnc2)c1)NC(=O)c1ccccc1 |
| 8.60 | 7.60 | 6.70 | < 5.00 | 6.20 | N#CCNC(=O)[C@H](Cc1cccc(-c2nncs2)c1)NC(=O)c1ccccc1 |
| 6.50 | 5.50 | 5.50 | 5.10 | < 5.00 | Cn1nccc1-c1cccc(C[C@H](NC(=O)c2ccccc2)C(=O)NCC#N)c1 |
| 7.00 | 5.80 | 6.30 | 5.20 | < 5.00 | Cn1cc(-c2cccc(C[C@H](NC(=O)c3ccccc3)C(=O)NCC#N)c2)cn1 |

Source: ChEMBL document CHEMBL1153482, “Design of selective Cathepsin inhibitors” (Bioorg Med Chem Lett, 2009)
